This is an account of results in ChEMBL document CHEMBL1147406, “Polar substitutions in the benzenesulfonamide ring of celecoxib afford a potent 1,5-diarylpyrazole class of COX-2 inhibitors” (Bioorg Med Chem Lett, 2004).

The target of test [1] is T1, Prostaglandin G/H synthase 2 (Homo sapiens, UniProt P35354).
T1 sequence (P35354 whole entry): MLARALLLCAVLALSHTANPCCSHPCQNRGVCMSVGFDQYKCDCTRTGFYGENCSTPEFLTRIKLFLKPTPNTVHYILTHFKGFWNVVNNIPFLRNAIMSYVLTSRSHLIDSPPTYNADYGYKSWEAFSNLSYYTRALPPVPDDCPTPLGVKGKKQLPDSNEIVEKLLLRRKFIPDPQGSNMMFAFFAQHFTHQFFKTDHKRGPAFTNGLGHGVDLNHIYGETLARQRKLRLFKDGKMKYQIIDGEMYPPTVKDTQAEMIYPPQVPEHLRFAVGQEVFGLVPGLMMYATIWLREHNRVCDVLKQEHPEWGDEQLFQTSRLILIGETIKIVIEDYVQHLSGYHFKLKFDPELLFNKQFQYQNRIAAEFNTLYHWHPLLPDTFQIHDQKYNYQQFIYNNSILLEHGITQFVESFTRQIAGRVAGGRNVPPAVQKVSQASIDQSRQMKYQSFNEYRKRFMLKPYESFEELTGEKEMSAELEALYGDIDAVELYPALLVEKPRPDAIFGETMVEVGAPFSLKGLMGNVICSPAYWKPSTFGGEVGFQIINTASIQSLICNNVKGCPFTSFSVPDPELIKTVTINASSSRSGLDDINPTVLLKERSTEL
The test is described as follows: Inhibitory activity against human Prostaglandin G/H synthase 2 expressed in sf-9 cells infected with baculovirus. The format is cell-based, Sf9.

Test [2] has as its target T2, Prostaglandin G/H synthase 1 (Ovis aries, UniProt P05979).
T2 sequence (P05979 whole entry): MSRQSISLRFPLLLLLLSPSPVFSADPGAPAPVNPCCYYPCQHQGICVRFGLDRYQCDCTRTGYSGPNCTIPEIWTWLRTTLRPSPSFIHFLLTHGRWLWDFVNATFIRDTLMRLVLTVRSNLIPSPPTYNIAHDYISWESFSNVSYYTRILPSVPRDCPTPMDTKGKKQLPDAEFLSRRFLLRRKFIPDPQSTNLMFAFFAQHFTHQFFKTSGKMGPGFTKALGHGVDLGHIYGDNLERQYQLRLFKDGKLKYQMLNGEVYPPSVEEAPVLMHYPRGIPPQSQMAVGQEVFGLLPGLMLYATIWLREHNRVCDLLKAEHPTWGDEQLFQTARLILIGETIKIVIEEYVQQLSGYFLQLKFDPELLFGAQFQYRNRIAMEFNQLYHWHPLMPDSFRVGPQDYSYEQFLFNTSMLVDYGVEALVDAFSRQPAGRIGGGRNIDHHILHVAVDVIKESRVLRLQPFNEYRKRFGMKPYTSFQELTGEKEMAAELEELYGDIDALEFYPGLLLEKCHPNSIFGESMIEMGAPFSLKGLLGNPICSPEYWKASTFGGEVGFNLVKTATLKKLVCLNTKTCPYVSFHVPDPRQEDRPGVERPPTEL

Test [3] addresses T3, Prostaglandin G/H synthase 2 (Homo sapiens) (UniProt P35354).
T3 sequence (whole entry): T1 sequence (P35354 whole entry)
The test is described as follows: Inhibitory activity of compound against human Prostaglandin G/H synthase 2 expressed in sf-9 cells infected with baculovirus at 100 uM concentration. The conditions noted are these: Sf9.

Test [4] has as its target T4, Prostaglandin G/H synthase 1 (Ovis aries) (UniProt P05979).
T4 sequence (whole entry): T2 sequence (P05979 whole entry)
In words: Inhibitory activity against prostaglandin G/H synthase 1 from ram seminal vesicles at 100 uM concentration.

The target of test [5] is T3, Prostaglandin G/H synthase 2 (Homo sapiens). The test is described as follows: Inhibitory activity of compound against human cyclooxygenase-2 expressed in sf-9 cells infected with baculovirus at 10 uM concentration. The following applies: Sf9.
For test [6], the target named is T4, Prostaglandin G/H synthase 1 (Ovis aries). In words: Inhibitory activity of compound against prostaglandin G/H synthase 1 from ram seminal vesicles at 10 uM concentration.
Test [7] has the same target. In words: Inhibitory activity of compound against Prostaglandin G/H synthase 1 from ram seminal vesicles at 10 uM concentration.

As usually defined, the IC50 is the concentration needed to halve the response being measured. Read a high IC50 as a need for much substance. Take `NS(=O)(=O)c1ccc(-n2nc(C(F)(F)F)cc2-c2ccccc2Cl)cc1CO`: the IC50 in test [1] is 6.3 µM; in test [2], 512 µM.

Take `COc1ccc(-c2cc(C(F)(F)F)nn2-c2ccc(S(N)(=O)=O)c(CNC(C)=O)c2)cc1`: the IC50 in test [1] came to 2.8 µM; in test [2] it was 100 µM.

The term inhibition denotes the share of the control response that was lost under treatment. High values mean a response far below the control, low ones a response near the control. For the molecule `CS(=O)(=O)c1ccc(-c2cc(C(F)(F)F)nn2-c2ccc(S(N)(=O)=O)c(CO)c2)cc1`, the inhibition in test [3] came to 29%; in test [4] it was 68%.

Regarding `NS(=O)(=O)c1ccc(-n2nc(C(F)(F)F)cc2-c2ccc(Cl)cc2)cc1CO`, the IC50 was 0.712 µM in test [1] and 336 µM in test [2].

In the case of `Cc1ccc(-c2cc(C(F)(F)F)nn2-c2ccc(S(N)(=O)=O)c(CO)c2)cc1`, the IC50 worked out at 0.76 µM in test [1] and 278 µM in test [2].

For `COc1ccc(-c2cc(C(F)(F)F)nn2-c2ccc3c(c2)CNS3(=O)=O)cc1`, the inhibition was determined as 12% in test [3] and 85% in test [4].

Regarding `CCC(=O)OCc1cc(-n2nc(C(F)(F)F)cc2-c2ccc(C)cc2)ccc1S(N)(=O)=O`, the IC50 in test [1] is 0.57 µM; in test [2], 34.6 µM.

With `COc1ccc(-c2cc(C(F)(F)F)nn2-c2ccc3c(c2)COS3(=O)=O)cc1`, the results for the inhibition in test [3] and in test [4] were 36% and 92%, respectively.

For `COc1ccc(-c2cc(C(F)(F)F)nn2-c2ccc(S(C)(=O)=O)c(CO)c2)cc1`, the IC50 in test [1] is 3.2 µM; in test [2], 300 µM.

For `Cc1cccc(-c2cc(C(F)(F)F)nn2-c2ccc(S(N)(=O)=O)c(CO)c2)c1`, the IC50 in test [1] stood at 0.728 µM; in test [2], 327 µM.

`NS(=O)(=O)c1ccc(-n2nc(C(F)(F)F)cc2-c2ccc(Br)cc2)cc1CO`: the IC50 was 0.592 µM in test [1] and 230 µM in test [2].

As to `CC(C)Cc1ccc(-c2cc(C(F)(F)F)nn2-c2ccc(S(N)(=O)=O)c(CO)c2)cc1`, the inhibition in test [3] was found to be 14%; in test [4] it was 4%.

Turning to `NS(=O)(=O)c1ccc(-n2nc(C(F)(F)F)cc2-c2ccc(F)cc2)cc1CO`, the IC50 came out at 1.99 µM in test [1] and 500 µM in test [2].

With `NS(=O)(=O)c1ccc(-n2nc(C(F)(F)F)cc2-c2cccc(Cl)c2)cc1CO`, the IC50 in test [1] was 1.95 µM; in test [2], 465 µM.

For the molecule `NS(=O)(=O)c1ccc(-n2nc(C(F)(F)F)cc2-c2ccccc2)cc1CO`, the IC50 in test [1] is 3.45 µM; in test [2] it was 1090 µM.

As to `NS(=O)(=O)c1ccc(-n2nc(C(F)(F)F)cc2-c2ccc(O)cc2)cc1CO`, the inhibition in test [5] amounted to 19%; in test [6] it was 0%.

Take `CSc1ccc(-c2cc(C(F)(F)F)nn2-c2ccc(S(N)(=O)=O)c(C(C)O)c2)cc1` (stereo not given): the inhibition in test [3] stood at 50%; in test [4] it was 6%.

Turning to `NS(=O)(=O)c1ccc(-n2nc(C(F)(F)F)cc2-c2ccccc2F)cc1CO`, the values for the IC50 in test [1] and in test [2] were 3.3 µM and 500 µM, respectively.

On to `CCOC(=O)OCc1cc(-n2nc(C(F)(F)F)cc2-c2ccc(C)cc2)ccc1S(C)(=O)=O`, for which the results for the inhibition in test [5] and in test [7] were 0% and 9%, respectively.

In the case of `COc1ccc(-c2cc(C(F)(F)F)nn2-c2ccc(S(N)(=O)=O)c(CO)c2)cc1`, the IC50 came out at 0.365 µM in test [1] and 63 µM in test [2].

`CSc1ccc(-c2cc(C(F)(F)F)nn2-c2ccc(S(C)(=O)=O)c(CO)c2)cc1`: the inhibition worked out at 45% in test [3] and 0% in test [4].

As to `NS(=O)(=O)c1ccc(-n2nc(C(F)(F)F)cc2-c2cccc(F)c2)cc1CO`, the IC50 in test [1] amounted to 7.05 µM; in test [2] it was 1000 µM.

For `CCSc1ccc(-c2cc(C(F)(F)F)nn2-c2ccc(S(N)(=O)=O)c(CO)c2)cc1`, the concentration for half-maximal inhibition (IC50) in test [1] was 51.2 µM; in test [2], 300 µM.

As for `COc1ccc(-c2cc(C(F)(F)F)nn2-c2ccc3c(c2)CCS3(=O)=O)cc1`, the figures for the inhibition in test [3] and in test [4] were 36% and 86%, respectively.

Consider `CCOc1ccc(-c2cc(C(F)(F)F)nn2-c2ccc(S(N)(=O)=O)c(CO)c2)cc1`, for which the figures for the IC50 in test [1] and in test [2] were 0.901 µM and 135 µM, respectively.

On to `Cc1ccc(-c2cc(C(F)(F)F)nn2-c2ccc3c(c2)CCS3(=O)=O)cc1`, for which the inhibition in test [3] turned out to be 10%; in test [4], 90%.

Consider `COc1ccc(-c2cc(C(F)(F)F)nn2-c2ccc(S(C)(=O)=O)c(C=O)c2)cc1`, for which the inhibition in test [3] amounted to 100%; in test [5], 44%; in test [4], 92%.

For the molecule `CSc1ccc(-c2cc(C(F)(F)F)nn2-c2ccc(S(N)(=O)=O)c(CO)c2)cc1`, the figures for the IC50 in test [1] and in test [2] were 0.235 µM and 59.7 µM, respectively.

Regarding `CC(=O)NCc1cc(-n2nc(C(F)(F)F)cc2-c2ccc(C)cc2)ccc1S(N)(=O)=O`, the figures for the 50% inhibitory concentration (IC50) in test [1] and in test [2] were 6.85 µM and 4.62 µM, respectively.

On to `CC(=O)NCc1cc(-n2nc(C(F)(F)F)cc2-c2ccc(Cl)cc2)ccc1S(N)(=O)=O`, for which the IC50 came out at 5 µM in test [1] and 100 µM in test [2].

Take `COc1ccccc1-c1cc(C(F)(F)F)nn1-c1ccc(S(N)(=O)=O)c(CO)c1`: the IC50 amounted to 28.6 µM in test [1] and 1150 µM in test [2].

Take `CCc1ccc(-c2cc(C(F)(F)F)nn2-c2ccc(S(N)(=O)=O)c(CO)c2)cc1`: the IC50 in test [1] was 1.38 µM; in test [2], 500 µM.
